{"source": "patent US12161630B2", "about": "“Methods to control infection using new generation small molecule growth inhibitors” (priority 2017, dated 2024)", "key": {"S. typhimurium WT": {"test_system": "S. typhimurium WT", "experiment": "MIC and MBC dose-response, serotype Typhimurium", "assay_type": "cell-based, Salmonella enterica subsp. enterica serovar Typhimurium LT2", "conditions": "for MIC/MBC: Salmonella serotype Typhimurium, MIC identical to MBC", "description": "(§1) An overnight Salmonella suspension was normalized at 0.05 OD600 (approximately 3.5×10^7 CFU/ml) with an adjusted M9 minimal broth medium (12.7 mM Na2HPO4 7H2O; 22 mM KH2PO4; 18.7 mM NH4Cl; 2 mM MgSO4; 0.1 mM CaCl2; 0.4% glucose; 0.05% casamino acids). 100 μL of the suspension plus 2 μl of SMs (200 μM) were transferred into each well of a sterile, non-treated, flat bottom 96-well plate. Bacteria alone (negative control, NC), 2% DMSO plus bacteria (DMSO control), 20 μg/ml chloramphenicol or 50 μg/ml kanamycin plus bacteria (positive controls, PC), and M9 medium only were used as control. Plates were incubated in a Sunrise™ Tecan kinetic microplate reader for 12 hrs at 37° C. and the optical density (OD) was measure at 600 nm as described above. Percentage of inhibition=(OD600 SM−OD600 NC)/(OD600 NC)×100. […] Cultures from wells showing no turbidimetric increase were transferred onto a XLT4 agar plate. Plates were incubated at 37° C. for 36 hrs.\n(§2) Screens were performed as described in the primary screen. The lowest SM concentration with a static effect was considered as the minimal inhibitory concentration (MIC) and the lowest SM concentration with a cidal effect was considered as the minimal bactericidal concentration (MBC)."}, "sheep red blood cells": {"test_system": "sheep red blood cells", "experiment": "Hemolytic activity in sheep RBCs", "assay_type": "cell-based", "conditions": "200 μM, one-hour treatment", "description": "Briefly, 200 μl of 10% sheep red blood cells (RBCs; LAMPIRE Biological Laboratories, Pipersville, PA) suspension was incubated with 1 μl of SMs (200 μM) for one hour at 37° C. in a sterile, non-treated, flat bottom plate 96-well. After incubation, the plate was centrifuged at 4000 rpm for 5 min at 4° C., then placed on ice for five min. 100 μL of the supernatant was transferred into a new sterile, treated, flat bottom 96-well plate, and the OD was measured at 540 nm. For this experiment, 2% DMSO (negative control) and 0.1% Triton-100X (positive control) were used. % Hemolysis=(OD540 SM−OD540 DMSO)/(OD540 1× triton−OD540 PBS)×100. Similar experiment was performed with chicken RBCs (OARDC, Ohio)."}, "Salmonella Braenderup": {"test_system": "Salmonella Braenderup", "experiment": "MIC and MBC dose-response, serotype Braenderup", "assay_type": "cell-based, Salmonella enterica", "conditions": "MIC identical to MBC"}, "Salmonella Heidelberg": {"test_system": "Salmonella Heidelberg", "experiment": "MIC and MBC dose-response, serotype Heidelberg", "assay_type": "cell-based, Salmonella enterica", "conditions": "MIC identical to MBC", "description": "as §1, §2"}, "Kan^R S. typhimurium": {"test_system": "Kan^R S. typhimurium", "experiment": "Salmonella clearance in one-week-old infected broiler chickens", "assay_type": "in vivo", "conditions": "100 μg orally twice daily for 5 days; for reduction in Salmonella population inside the ceca: compared to DMSO group; for Chicken tissues positive for Salmonella: Ceca / Chicken tissues positive for Salmonella: Livers / Chicken tissues positive for Salmonella: Spleens: n = 10", "description": "FIG. 7. Experimental design of the Salmonella clearance study in one-week-old infected broiler chickens. Salmonella-free chickens were orally infected with 10^4 S. typhimurium units per chickens (0 DPI). After confirmation of the intestinal colonization by Salmonella (1 DPI), ten chicks per treatment were treated twice a day for five days with 100 μg of SMs (3 DPI to 7 DPI). Ceca, liver, and spleen tissues were collected at 8 DPI. DPI: days post-inoculation.\nEffect of selected SMs on the survival of S. typhimurium in one-week-old SFP chickens: One-week-old Salmonella-free chickens were orally inoculated with approximately 10^4 Kan^R S. typhimurium bacteria. A rectal swab was collected to confirm the intestinal colonization by Salmonella at one day post-inoculation (DPI). At 3 DPI, chickens were treated orally twice a day for five days with a specific treatment of approximately 920 μg/kg SMs per dose. Details of the treatment groups are described in Table 7. Feeders were taken off one hour before the treatment and put back one hour after the treatment. Following the five days of treatment, chickens were euthanized and tissues were aseptically collected (ceca, liver, and spleen). One of the cecum was immediately stored at −80° C. after sampling for microbiota studies. Ceca, spleens, and livers tissues were suspended in 2, 3, and 5 mL of 1×PBS respectively and grinded. 1 mL of the undiluted homogenized tissue mix was enriched in 9 mL of tetrathionate broth (TTB) medium for 18 hrs at 37° C. The rest of the homogenized tissues were serial ten-fold diluted, plated on XLT4 agar plate supplemented with 50 μg/ml kanamycin, and incubated for 36 hrs at 37° C. Bacterial counts were compared with the DMSO control group."}, "[1]": {"test_system": "S. typhimurium cell membrane", "experiment": "Crystal violet uptake after treatment with lethal dose of SMs", "assay_type": "cell-based", "conditions": "1 hr; for reduction of crystal violet uptake: compared to 1% DMSO control", "description": "To further support the observation obtained with confocal microscopy, the same samples were analyzed using scanning electron microscopy (SEM; FIG. 13P-S). […] Smaller outer membrane vesicles of approximately 20 to 70 nm were also observed covering the surface of the bacteria. […] These conclusions were further supported by measuring the crystal violet uptake and leakage of materials assessed at 260 nm after 1 hr of treatment with a lethal dose of SMs."}, "M. gallisepticum": {"test_system": "M. gallisepticum", "experiment": "Activity on avian pathogens at 200 μM, M. gallisepticum", "assay_type": "cell-based, Mycoplasma gallisepticum", "description": "FIGS. 1(A-E). Selection of potent Salmonella growth inhibitors. FIG. 1A: High-throughput screening of 4182 SMs against S. typhimurium WT at 200 μM. Negative value: growth inhibition; Positive value: growth stimulation compared to S. typhimurium growth not treated. The black line represents growth inhibition caused by 2% DMSO. FIG. 1B: Activity of 19 S. typhimurium growth inhibitors against additional Salmonella serotypes. Light grey cells: total growth inhibition; dark grey cells: bacterial growth observed; black cells: not determined. FIG. 1C: Dose-response assays of the selected 19 SMs against S. typhimurium WT. […] The black line represents a cut off of nine serotypes killed per SM. FIG. 1E: Activity spectra of the selected four SMs at 200 μM each on several avian-pathogens (Campylobacter jejuni, Escherichia coli APEC, and Mycoplasma gallisepticum) and beneficial gut bacteria (remaining species). E. coli APEC refers to Avian Pathogenic E. coli and includes E. coli O1, O2, O8, O15, O18, O35, O78, O109, and O115. Light grey cells: cidal effect; dark grey cells: bacterial growth observed. Left side: phylogenetic tree based on NCBI taxonomic ID built with PhyloT software.\nThe selected four SMs were tested on twelve beneficial-commensal gut bacteria at 200 μM (FIG. 1E). […] These four SMs were also growth inhibitors of other avian pathogens at 200 μM (unpublished data, FIG. 1E). […] The antimicrobial activity seemed not to be influenced by the taxonomic classification, however the SM5 bacterial target may be less present in prokaryotes than the drug target of the other three SMs."}}, "data": [{"compound": "CC1CCC(C(C)C)C(OC(=O)Cn2c[n+](CC(=O)OC3CC(C)CCC3C(C)C)c3ccccc32)C1.[Cl-]", "note": "(stereo not drawn) [SM1, 1,3-bis{2-[(2-isopropyl-5-methylcyclohexyl)oxy]-2-oxoethyl}-1H-3,1-benzimidazol-3-ium chloride]", "values": [{"measurement": "MIC/MBC", "setting": "S. typhimurium WT", "value": 50, "unit": "µM"}, {"measurement": "hemolytic activity in sheep RBCs", "setting": "sheep red blood cells", "value": "> 50", "unit": "%"}, {"measurement": "MIC/MBC", "setting": "Salmonella Braenderup", "value": 100, "unit": "µM"}, {"measurement": "MIC/MBC", "setting": "Salmonella Heidelberg", "value": 100, "unit": "µM"}, {"measurement": "reduction in Salmonella population inside the ceca", "setting": "Kan^R S. typhimurium", "value": "did not show any reduction"}, {"measurement": "Chicken tissues positive for Salmonella: Ceca", "setting": "Kan^R S. typhimurium", "value": 90, "unit": "%"}, {"measurement": "Chicken tissues positive for Salmonella: Livers", "setting": "Kan^R S. typhimurium", "value": 40, "unit": "%"}, {"measurement": "Chicken tissues positive for Salmonella: Spleens", "setting": "Kan^R S. typhimurium", "value": 50, "unit": "%"}, {"measurement": "reduction of crystal violet uptake", "setting": "[1]", "value": 1.88, "unit": "fold"}]}, {"compound": "CCCCCCCCCCCCCCCC[n+]1ccn(CC#N)c1.[Cl-]", "note": "[SM3, 1-(cyanomethyl)-3-hexadecyl-1H-imidazol-3-ium chloride]", "values": [{"measurement": "effect against M. gallisepticum", "setting": "M. gallisepticum", "value": "killed"}, {"measurement": "MIC/MBC", "setting": "S. typhimurium WT", "value": 25, "unit": "µM"}, {"measurement": "MIC/MBC", "setting": "Salmonella Braenderup", "value": 25, "unit": "µM"}, {"measurement": "MIC/MBC", "setting": "Salmonella Heidelberg", "value": 50, "unit": "µM"}, {"measurement": "reduction in Salmonella population inside the ceca", "setting": "Kan^R S. typhimurium", "value": "did not show any reduction"}, {"measurement": "Chicken tissues positive for Salmonella: Ceca", "setting": "Kan^R S. typhimurium", "value": 80, "unit": "%"}, {"measurement": "Chicken tissues positive for Salmonella: Livers", "setting": "Kan^R S. typhimurium", "value": 60, "unit": "%"}, {"measurement": "Chicken tissues positive for Salmonella: Spleens", "setting": "Kan^R S. typhimurium", "value": 50, "unit": "%"}, {"measurement": "reduction of crystal violet uptake", "setting": "[1]", "value": 4.46, "unit": "fold"}]}, {"compound": "CCOc1cc(/C=N/N=C(N)N)ccc1OCc1ccc(Cl)cc1", "note": "[SM5, N″-{4-[(4-chlorobenzyl)oxy]-3-ethoxybenzylidene}carbonohydrazonic diamide]", "values": [{"measurement": "effect against M. gallisepticum", "setting": "M. gallisepticum", "value": "killed"}, {"measurement": "MBC", "setting": "S. typhimurium WT; Salmonella enterica, TYPHIMURIUM, read-out: MBCAlone of SM", "value": 25, "unit": "µM"}, {"measurement": "MIC/MBC", "setting": "S. typhimurium WT", "value": 25, "unit": "µM"}, {"measurement": "hemolytic activity in sheep RBCs", "setting": "sheep red blood cells", "value": "lower than 1%"}, {"measurement": "MIC/MBC", "setting": "Salmonella Braenderup", "value": 50, "unit": "µM"}, {"measurement": "MIC/MBC", "setting": "Salmonella Heidelberg", "value": 50, "unit": "µM"}, {"measurement": "Chicken tissues positive for Salmonella: Ceca", "setting": "Kan^R S. typhimurium", "value": 70, "unit": "%"}, {"measurement": "Chicken tissues positive for Salmonella: Livers", "setting": "Kan^R S. typhimurium", "value": 40, "unit": "%"}, {"measurement": "Chicken tissues positive for Salmonella: Spleens", "setting": "Kan^R S. typhimurium", "value": 30, "unit": "%"}, {"measurement": "increase in permeability (crystal violet uptake)", "setting": "[1]; compared to 1% DMSO-treated cells", "value": 2.32, "unit": "fold"}]}, {"compound": "CCCCCCCCCCCCCCCCn1c[n+](C)c2ccccc21.[Br-]", "note": "[SM4, 1-hexadecyl-3-methyl-1H-3,1-benzimidazol-3-ium bromide]", "values": [{"measurement": "effect against M. gallisepticum", "setting": "M. gallisepticum", "value": "killed"}, {"measurement": "MIC/MBC", "setting": "S. typhimurium WT", "value": 10, "unit": "µM"}, {"measurement": "MIC/MBC", "setting": "Salmonella Braenderup", "value": 10, "unit": "µM"}, {"measurement": "MIC/MBC", "setting": "Salmonella Heidelberg", "value": 25, "unit": "µM"}, {"measurement": "Chicken tissues positive for Salmonella: Ceca", "setting": "Kan^R S. typhimurium", "value": 40, "unit": "%"}, {"measurement": "Chicken tissues positive for Salmonella: Livers", "setting": "Kan^R S. typhimurium", "value": 30, "unit": "%"}, {"measurement": "Chicken tissues positive for Salmonella: Spleens", "setting": "Kan^R S. typhimurium", "value": 20, "unit": "%"}, {"measurement": "reduction of crystal violet uptake", "setting": "[1]", "value": 2.01, "unit": "fold"}]}]}
